Results as given in patent publication US6977246B2, “Certain dinucleotides and their use as modulators of mucociliary clearance and ciliary beat frequency” (Inspire Pharmaceuticals, Inc., priority 1997, dated 2005).
Counter-ions that a name gives are not always drawn. Like-named read-outs stand apart in the source and are kept apart here.

Legend:
P2Y2 receptor = P2Y2 receptor (Homo sapiens, UniProt P41231); assay: inositol phosphate assay, P2Y2 receptor activity
Excerpt: (§1) The pharmaceutical utility of compounds of this invention are indicated by the inositol phosphate assay for P2Y2 and other P2Y receptor activity. […] 116, 1619-27 (1995), relies on the measurement of inositol phosphate formation as a measurement of activity of compounds activating receptors linked via G-proteins to phospholipase C.

P2Y6 receptor = P2Y6 receptor (Homo sapiens, UniProt Q15077); assay: inositol phosphate assay, P2Y6 receptor activity
P2Y6 receptor, sequence (Q15077 whole entry): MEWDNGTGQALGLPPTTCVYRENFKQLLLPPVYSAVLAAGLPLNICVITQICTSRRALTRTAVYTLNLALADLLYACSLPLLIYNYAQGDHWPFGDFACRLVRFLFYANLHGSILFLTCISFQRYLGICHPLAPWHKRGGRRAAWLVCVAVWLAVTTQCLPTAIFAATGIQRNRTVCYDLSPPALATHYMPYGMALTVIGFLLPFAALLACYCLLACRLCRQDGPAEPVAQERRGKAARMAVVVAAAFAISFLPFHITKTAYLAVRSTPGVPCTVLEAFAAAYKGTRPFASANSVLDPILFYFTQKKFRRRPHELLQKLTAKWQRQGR
Excerpt: as §1

P2Y4 receptor = P2Y4 receptor (Homo sapiens, UniProt P51582); assay: inositol phosphate assay, P2Y4 receptor activity
P2Y4 receptor, sequence (P51582 whole entry): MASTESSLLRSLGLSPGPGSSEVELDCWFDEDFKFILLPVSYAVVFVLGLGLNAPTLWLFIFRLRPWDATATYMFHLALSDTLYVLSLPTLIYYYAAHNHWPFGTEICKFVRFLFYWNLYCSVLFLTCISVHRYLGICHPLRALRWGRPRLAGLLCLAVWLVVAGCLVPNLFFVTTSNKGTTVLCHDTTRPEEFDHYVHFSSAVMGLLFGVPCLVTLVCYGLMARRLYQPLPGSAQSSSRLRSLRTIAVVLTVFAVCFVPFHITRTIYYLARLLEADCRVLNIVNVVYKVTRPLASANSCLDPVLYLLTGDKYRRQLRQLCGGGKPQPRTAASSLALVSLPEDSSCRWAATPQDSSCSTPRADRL
Excerpt: as §1

P2Y1 receptor [1] = biological target: T1, P2Y1 receptor (Homo sapiens, UniProt P47900); assay: cell-based
T1 sequence (P47900 whole entry): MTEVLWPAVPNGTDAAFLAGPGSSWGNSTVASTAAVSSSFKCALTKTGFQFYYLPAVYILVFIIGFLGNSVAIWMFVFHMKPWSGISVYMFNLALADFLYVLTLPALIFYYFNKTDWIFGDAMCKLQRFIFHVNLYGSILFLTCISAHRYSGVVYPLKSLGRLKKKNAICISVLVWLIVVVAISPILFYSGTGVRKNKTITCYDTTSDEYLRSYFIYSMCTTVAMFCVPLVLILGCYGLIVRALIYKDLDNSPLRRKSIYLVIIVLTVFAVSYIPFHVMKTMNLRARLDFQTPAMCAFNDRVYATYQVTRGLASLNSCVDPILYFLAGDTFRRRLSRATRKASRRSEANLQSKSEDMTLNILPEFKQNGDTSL
Excerpt: as §1

P2Y1 receptor [2] = biological target: T1, P2Y1 receptor; assay: inositol phosphate assay, P2Y1 receptor activity; conditions: inositol phosphate formation
Excerpt: as §1

[3] = normal volunteers; cited from earlier work
[4] = read-out: EC50 P2Y2, inositol phosphate formation
[5] = read-out: EC50 P2Y6, inositol phosphate formation
[6] = read-out: EC50 P2Y4, inositol phosphate formation

P2Y2 receptor, sequence (P41231 whole entry): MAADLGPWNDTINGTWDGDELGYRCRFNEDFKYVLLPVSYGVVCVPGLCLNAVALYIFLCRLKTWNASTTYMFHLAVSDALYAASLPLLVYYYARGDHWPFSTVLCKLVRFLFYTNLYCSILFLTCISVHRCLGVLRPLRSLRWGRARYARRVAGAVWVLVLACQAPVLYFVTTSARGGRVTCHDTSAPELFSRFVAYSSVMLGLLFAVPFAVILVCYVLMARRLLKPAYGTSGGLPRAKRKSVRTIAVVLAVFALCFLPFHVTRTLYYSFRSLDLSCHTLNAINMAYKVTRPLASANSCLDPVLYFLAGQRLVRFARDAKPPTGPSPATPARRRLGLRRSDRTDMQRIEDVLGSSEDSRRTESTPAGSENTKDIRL

Compound | EC50 (P2Y2 receptor) [µM] | EC50 (P2Y6 receptor) [µM] | EC50 (P2Y4 receptor) [µM] | also measured
O=c1ccn([C@@H]2O[C@H](COP(=O)(O)OP(=O)(O)OP(=O)(O)OP(=O)(O)OP(=O)(O)OP(=O)(O)OC[C@H]3O[C@@H](n4ccc(=O)[nH]c4=O)[C@H](O)[C@@H]3O)[C@@H](O)[C@H]2O)c(=O)[nH]1 [Example 14, P^1,P^6-Di(uridine-5′-)hexaphosphate] |  |  |  | EC50 (P2Y2 receptor; [4]): 10.7 µM; EC50 (P2Y6 receptor; [5]): 3.5 µM; EC50 (P2Y4 receptor; [6]): 14.7 µM
O=c1[nH]c(=S)ccn1[C@@H]1O[C@H](COP(=O)(O)OP(=O)(O)OP(=O)(O)OP(=O)(O)OC[C@H]2O[C@@H](n3ccc(=S)[nH]c3=O)[C@H](O)[C@@H]2O)[C@@H](O)[C@H]1O [Example 4, P^1,P^4-Di(4-thiouridine 5′-tetraphosphate)] | 0.02 | 0.05 |  | Percentage response of same study positive control, P2Y6 (P2Y6 receptor; inositol phosphate formation): 20%
Cc1cn([C@H]2C[C@H](O)[C@@H](COP(=O)(O)OP(=O)(O)OP(=O)(O)OP(=O)(O)OC[C@H]3O[C@@H](n4ccc(=O)[nH]c4=O)[C@H](O)[C@@H]3O)O2)c(=O)[nH]c1=O [Example 7, P^1-(Thymidine-5′-)P^4-(uridine-5′-)tetraphosphate] | 0.11 | 0.88 | 0.2 | 
P^1,P^4-Di(2′(3′)-benzoyl uridine 5′-)tetraphosphate [Example 16] |  |  |  | EC50 (P2Y2 receptor; [4]): 0.79 µM; EC50 (P2Y6 receptor; [5]): 5.33 µM; EC50 P2Y1 (P2Y1 receptor [2]): IA (Response < 2-fold basal); EC50 (P2Y4 receptor; [6]): 0.73 µM
O=c1n([C@@H]2O[C@H](COP(=O)(O)OP(=O)(O)OP(=O)(O)OP(=O)(O)OC[C@H]3O[C@@H](n4ccc5nccn5c4=O)[C@H](O)[C@@H]3O)[C@@H](O)[C@H]2O)ccc2nccn12 [Example 6, P^1,P^4-Di(3,N^4-ethenocytidine 5′-)tetraphosphate] | 0.46 |  | 19.8 | EC50 P2Y6 (P2Y6 receptor; inositol phosphate formation): IA (Response < 2-fold basal); Percentage response of same study positive control, P2Y4 (P2Y4 receptor; inositol phosphate formation): 75%; EC50 (P2Y1 receptor [1]): > 100 µM
O=c1n([C@@H]2O[C@H](COP(=O)(O)OP(=O)(O)OP(=O)(O)OP(=O)(O)OC[C@H]3O[C@@H](n4ccc5nc(-c6cccc([N+](=O)[O-])c6)cn5c4=O)[C@H](O)[C@@H]3O)[C@@H](O)[C@H]2O)ccc2nc(-c3cccc([N+](=O)[O-])c3)cn12 [Example 6a, P^1,P^4-Di(imidazo[1,2-c]pyrimidin-5(6H)-one-2-(3-nitro)-phenyl-6-β-D-ribofuranoside 5′-)tetraphosphate, tetraammonium salt] | 0.3 | 0.87 | 0.06 | 
O=c1ccn([C@@H]2O[C@H](COP(=O)(O)OP(=O)(O)OP(=O)(O)O)[C@@H](O)[C@H]2O)c(=O)[nH]1 [UTP, uridine 5′-triphosphate] |  |  |  | improvement in lung mucociliary clearance [3]: 2.5 fold; side-effects [3]: without any significant side-effects
2′(3′)-Benzoyl-P^1,P^4-di(uridine 5′-)tetraphosphate [Example 15] |  |  |  | EC50 (P2Y2 receptor; [4]): 0.64 µM; EC50 (P2Y6 receptor; [5]): 9.71 µM; EC50 P2Y1 (P2Y1 receptor [2]): IA (Response < 2-fold basal); EC50 (P2Y4 receptor; [6]): 3.72 µM

More lines, main results first:

EC50 (P2Y2 receptor) [µM] | EC50 (P2Y6 receptor) [µM] | EC50 (P2Y4 receptor) [µM] | Compound | also measured
0.19 | 1.3 | 0.32 | Nc1ccn([C@@H]2O[C@H](COP(=O)(O)OP(=O)(O)OP(=O)(O)OP(=O)(O)OC[C@H]3O[C@@H](n4ccc(=O)[nH]c4=O)[C@H](O)[C@@H]3O)[C@@H](O)[C@@H]2O)c(=O)n1 [Example 10, P^1-(Cytosine β-D-arabinofuranoside 5′-)P^4-(uridine 5′-)tetraphosphate] | Percentage response of same study positive control, P2Y4 (P2Y4 receptor; inositol phosphate formation): 65%
0.1 | 0.92 | 0.39 | O=c1ccn([C@@H]2O[C@H](COP(=O)(O)OP(=O)(O)OP(=O)(O)OP(=O)(O)OC[C@H]3O[C@@H](n4ccc(=O)[nH]c4=O)C[C@@H]3O)[C@@H](O)[C@H]2O)c(=O)[nH]1 [Example 12, P^1-(2′-deoxyuridine 5′-)-P^4-(uridine 5′-)tetraphosphate] | 
0.63 | 2.56 | 1.19 | O=c1ccn([C@@H]2O[C@H](COP(=O)(O)OP(=O)(O)NP(=O)(O)OP(=O)(O)OC[C@H]3O[C@@H](n4ccc(=O)[nH]c4=O)[C@H](O)[C@@H]3O)[C@@H](O)[C@H]2O)c(=O)[nH]1 [Example 3, P^1,P^4-Di(uridine 5′-P^2,P^3-imidotetraphosphate)] | EC50 (P2Y1 receptor [1]): 3.67 µM
0.11 | 0.8 | 0.15 | O=c1ccn([C@@H]2O[C@H](COP(=O)(O)OP(=O)(O)OP(=O)(O)OP(=O)(O)OC[C@H]3O[C@@H](n4cnc5c(=O)[nH]cnc54)[C@H](O)[C@@H]3O)[C@@H](O)[C@H]2O)c(=O)[nH]1 [Example 8, P^1-(Inosine 5′-)P^4-(uridine 5′-)tetraphosphate] | 
5.71 | > 100 | 1 | O=c1ccn([C@@H]2O[C@H](COP(=O)(O)OP(=O)(O)C(F)(F)P(=O)(O)OP(=O)(O)OC[C@H]3O[C@@H](n4ccc(=O)[nH]c4=O)[C@H](O)[C@@H]3O)[C@@H](O)[C@H]2O)c(=O)[nH]1 [Example 2, P^1,P^4-Di(uridine 5′-P^2,P^3-difluoromethylenetetraphosphate)] | Percentage response of same study positive control, P2Y4 (P2Y4 receptor; inositol phosphate formation): 80%
3.8 | 92.6 | 2.87 | O=c1ccn([C@@H]2O[C@H](COP(=O)(O)OP(=O)(O)OP(=O)(O)OP(=O)(O)OP(=O)(O)OC[C@H]3O[C@@H](n4ccc(=O)[nH]c4=O)[C@H](O)[C@@H]3O)[C@@H](O)[C@H]2O)c(=O)[nH]1 [Example 5, P^1,P^5-Di(uridine 5′-pentaphosphate)] | Percentage response of same study positive control, P2Y2 (P2Y2 receptor; inositol phosphate formation): 80%; Percentage response of same study positive control, P2Y1 (P2Y1 receptor [2]): 55%; EC50 (P2Y1 receptor [1]): 31.2 µM
0.37 | 1.79 | 4.16 | O=c1ccn([C@@H]2O[C@H](COP(=O)(O)OP(=O)(O)OP(=O)(O)OP(=O)(O)OC[C@H]3O[C@@H](n4ccc(=S)[nH]c4=O)[C@H](O)[C@@H]3O)[C@@H](O)[C@H]2O)c(=O)[nH]1 [Example 9, P^1-(4-Thiouridine 5′-)P^4-(uridine 5′-)tetraphosphate] | EC50 (P2Y1 receptor [1]): > 100 µM
0.2 | 0.54 | 0.13 | Cc1cn([C@H]2C[C@H](N=[N+]=[N-])[C@@H](COP(=O)(O)OP(=O)(O)OP(=O)(O)OP(=O)(O)OC[C@H]3O[C@@H](n4ccc(=O)[nH]c4=O)[C@H](O)[C@@H]3O)O2)c(=O)[nH]c1=O [Example 13, P^1-(3′-Azido-3′-deoxythymidine 5′-)-P^4-(uridine 5′-)tetraphosphate] | 
0.13 | 3.39 | 0.38 | O=c1ccn([C@@H]2O[C@H](COP(=O)(O)OP(=O)(O)OP(=O)(O)OP(=O)(O)OC[C@H]3O[C@@H](n4cnc5c(=O)[nH]c(=O)[nH]c54)[C@H](O)[C@@H]3O)[C@@H](O)[C@H]2O)c(=O)[nH]1 [Example 11, P^1-(Uridine 5′-)-P^4-(xanthosine 5′-)tetraphosphate] | Percentage response of same study positive control, P2Y4 (P2Y4 receptor; inositol phosphate formation): 75%
> 100 |  | 11.1 | O=c1ccn([C@@H]2O[C@H](COP(=O)(O)OP(=O)(O)CP(=O)(O)OP(=O)(O)OC[C@H]3O[C@@H](n4ccc(=O)[nH]c4=O)[C@H](O)[C@@H]3O)[C@@H](O)[C@H]2O)c(=O)[nH]1 [Example 1, P^1,P^4-Di(uridine 5′-)P^2,P^3-methylenetetraphosphate] | EC50 P2Y6 (P2Y6 receptor; inositol phosphate formation): IA (Response < 2-fold basal); Percentage response of same study positive control, P2Y4 (P2Y4 receptor; inositol phosphate formation): 60%
